This is an account of results in patent publication US5380714A, “2-furyl-triazalo [1,5-a]-[1,3,5]triazines and pyrazolo [2,3-a][1,3,5]triazines” (Imperial Chemical Industries PLC, priority 1991, dated 1995).

Where only a bound is given, the exact number is not on record here.

For the assay, the target named is T1, A2 Adenosine receptor (Rattus norvegicus, UniProt P30543).
T1 construct: membrane preparations derived from the rat phaeochromocytoma cell line PC 12; host or cells: PC 12 (rat phaeochromocytoma)
In words: A2 Adenosine receptor affinity test: displacement of [3H]-NECA from PC 12 cell membranes. Format: binding. The source says: (a) A2 Adenosine receptor affinity test This test involves the ability of a test adenosine antagonist to displace the known adenosine mimetic agent [^3 H]-N-ethylcarboxamidoadenosine (NECA) from binding sites on membrane preparations derived from the rat phaeochromocytoma cell line PC 12 (available from the Beatson Institute, Glasgow). […] The membrane preparation is obtained as follows: Frozen pellets of PC12 cells are washed twice with ice cold, buffered, physiological saline and the cells recovered by centrifugation (1500 G) at 3° C. The separated cells are then suspended in hypotonic solution (distilled water), allowed to stand on ice for 30 minutes and are then carefully homogenized using a standard high-speed homogeniser with periodic ice-cooling to obtain a fine suspension. […] A1280). The mixture is then incubated at 37° C. After 20 minutes, the reaction is terminated by dilution with ice-cold buffer and transfer onto ice. The material obtained containing the cell membranes is recovered by centrifugation and washed by resuspension in buffer and recentrifugation. The pellet produced is then resuspended in ice-cold buffer using a hand-driven homogenizer. The resultant membrane suspension is frozen and stored under liquid nitrogen until required. […] After incubation, the samples are rapidly filtered over glass-fibre mats and the filter mats are washed to remove non-receptor-bound radioligand. Receptor-bound radioligand entrapped on the filter mats is then determined by liquid scintillation counting. Filtration and washing are carried out using a conventional vacuum filtration cell harvester. The specific binding (defined as the difference between the total binding and the non-specific binding) in the presence of the particular test compound is determined and compared with the control value.
(In a radioligand displacement assay an active substance lowers the binding of a labelled ligand.)

Where [1] appears, read: read-out: displacement of control binding.

T1 sequence (P30543 whole entry): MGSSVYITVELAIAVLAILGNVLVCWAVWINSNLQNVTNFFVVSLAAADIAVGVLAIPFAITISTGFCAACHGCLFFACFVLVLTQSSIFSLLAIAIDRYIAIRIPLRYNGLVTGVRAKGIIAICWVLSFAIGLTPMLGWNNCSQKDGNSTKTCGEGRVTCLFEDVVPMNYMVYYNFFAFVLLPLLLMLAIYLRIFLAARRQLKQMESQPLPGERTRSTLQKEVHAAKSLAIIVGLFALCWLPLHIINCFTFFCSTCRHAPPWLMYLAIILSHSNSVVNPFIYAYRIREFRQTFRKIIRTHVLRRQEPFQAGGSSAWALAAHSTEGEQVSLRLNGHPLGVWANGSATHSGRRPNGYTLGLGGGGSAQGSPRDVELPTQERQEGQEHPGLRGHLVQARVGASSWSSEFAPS

`CN(C)CCN(C)S(=O)(=O)c1ccc(CCNc2nc(N)n3nc(-c4ccco4)nc3n2)cc1` [Example 1, 7-Amino-2-(2-furyl)-5-[2-[(4-dimethylaminoethyl-N,methylsulphonamido)phenyl]ethyl]amino[1,2,4]-triazolo[1,5-a][1,3,5]-triazine]: for the setting “[3H]-NECA displacement, PC 12 membranes, inferred from displacement at 10^-5 M and 10^-7 M, read-out: pIC50 (indicated by % displacement values) (converted)”, the IC50 was less than 100 nM. Besides, under setting [1], the inhibition at 0.1 µM was found to be 77.7% and the inhibition at 10 µM is 93.7%.
